# Test results taken from US10138230B2, “Autotaxin inhibitors” (CANCER RESEARCH TECHNOLOGY LIMITED, priority 2015, dated 2018).
# Structures can show the parent of a compound that is named as a salt.
# Target: human recombinant ATX (Homo sapiens (Human), UniProt Q13822)
# Assay: Autotaxin (ATX) activity Quanta Red assay
# Assay type: biochemical
# Settings: 15 μM Rac-1-Palmitoyl-glycero-3-phosphocholine, 2 hours room temperature, determined in duplicate
# Summary of the method: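 Human recombinant ATX (0.8 μg/mL final) in 50 mM Tris-HCl pH 8.0, 5 mM CaCl2, 4% DMSO; 15 μM rac-1-palmitoyl-glycero-3-phosphocholine with HRP/choline oxidase-coupled Quanta Red, 2 h at room temperature.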
row,SMILES,IC50 [µM]
1,"CN(CCC(C)(C)O)Cc1ccc(N2C[C@H](NC(=O)c3nnc(CCc4ccc(Cl)cc4)s3)CC2=O)cc1 [Compound F171, 5-[2-(4-chlorophenyl)ethyl]-N-[(3R)-1-[4-[[(3-hydroxy-3-methyl-butyl)-methyl-amino]methyl]phenyl]-5-oxo-pyrrolidin-3-yl]-1,3,4-thiadiazole-2-carboxamide]",0.058
2,"O=C(NC1CC(=O)N(c2ccc(CN3CCCCC3)cc2)C1)c1nnc(CCc2ccccc2)s1 (stereo not drawn) [Compound F172, N-[5-oxo-1-[4-(1-piperidylmethyl)phenyl]pyrrolidin-3-yl]-5-(2-phenylethyl)-1,3,4-thiadiazole-2-carboxamide]",0.076
3,"O=C(N[C@@H]1CC(=O)N(c2ccc(CN3CCCCC3)cc2)C1)c1cc(CCc2ccc(F)cc2)on1 [Compound F173, 5-[2-(4-fluorophenyl)ethyl]-N-[(3R)-5-oxo-1-[4-(1-piperidylmethyl)phenyl]pyrrolidin-3-yl]isoxazole-3-carboxamide]",0.024
4,"O=C(N[C@H]1CC(=O)N(c2ccc(CN3CCCCC3)cc2)C1)c1cc(CCc2ccc(F)cc2)on1 [Compound F174, 5-[2-(4-fluorophenyl)ethyl]-N-[(3S)-5-oxo-1-[4-(1-piperidylmethyl)phenyl]pyrrolidin-3-yl]isoxazole-3-carboxamide]",0.033
5,"O=C(NC1CC(=O)N(c2ccc(CN3CCCCC3)cc2)C1)c1cc(CCc2ccccc2)on1 (stereo not drawn) [Compound F175, N-[5-oxo-1-[4-(1-piperidylmethyl)phenyl]pyrrolidin-3-yl]-5-(2-phenylethyl)isoxazole-3-carboxamide]",0.047
6,"O=C(Nc1nnc(CCc2ccccc2)s1)C1CC(=O)N(c2ccc(CN3CCOCC3)cc2)C1 (stereo not drawn) [Compound F176, 1-[4-(morpholinomethyl)phenyl]-5-oxo-N-[5-(2-phenylethyl)-1,3,4-thiadiazol-2-yl]pyrrolidine-3-carboxamide]",0.011
7,"CN(C)Cc1ccc(N2CC(C(=O)Nc3nnc(CCc4ccc(Cl)cc4)s3)CC2=O)cc1 (stereo not drawn) [Compound F177, N-[5-[2-(4-chlorophenyl)ethyl]-1,3,4-thiadiazol-2-yl]-1-[4-[(dimethylamino)methyl]phenyl]-5-oxo-pyrrolidine-3-carboxamide]",0.029
8,"O=C1CC(NCc2nnc(CCc3ccc(Cl)cc3)s2)CN1c1ccc(CN2CCOCC2)cc1 (stereo not drawn) [Compound F183, 4-({5-[2-(4-Chloro-phenyl)-ethyl]-[1,3,4]thiadiazol-2-ylmethyl}-amino)-1-(4-morpholin-4-ylmethyl-phenyl)-pyrrolidin-2-one; hydrochloride]",0.023

# The remaining lines, values ahead:
row,IC50 [µM],SMILES
1,0.03,"O=C(Nc1ccc(CCc2ccc(F)cc2)nn1)[C@H]1CC(=O)N(c2ccc(CN3CCCCC3)cc2)C1 [Compound F178, (3S)-N-[6-[2-(4-fluorophenyl)ethyl]pyridazin-3-yl]-5-oxo-1-[4-(1-piperidylmethyl)phenyl] pyrrolidine-3-carboxamide]"
2,0.038,"O=C(Nc1cc(CCc2ccccc2)[nH]n1)C1CC(=O)N(c2ccc(CN3CCOCC3)cc2)C1 (stereo not drawn) [Compound F179, 1-[4-(morpholinomethyl)phenyl]-5-oxo-N-[5-(2-phenylethyl)-1H-pyrazol-3-yl]pyrrolidine-3-carboxamide]"
3,0.011,"O=C(Nc1ccc(CCc2ccc(F)cc2)nn1)[C@H]1CC(=O)N(c2ccc(CN3CCOCC3)cc2)C1 [Compound F180, (3S)—N-[6-[2-(4-fluorophenyl)ethyl]pyridazin-3-yl]-1-[4-(morpholinomethyl)phenyl]-5-oxo-pyrrolidine-3-carboxamide hydrochloride]"
4,0.021,"CCC(C)CCc1nnc(NC(=O)C2CC(=O)N(c3ccc(CN4CCCCC4)cc3)C2)s1 (stereo not drawn) [Compound F182, 5-oxo-1-(4-piperidin-1-ylmethyl-phenyl)-pyrrolidine-3-carboxylic acid [5-(3-methyl-pentyl)-[1,3,4]thiadiazol-2-yl]-amide; hydrochloride]"
